“Also recorded” adds a separate entry of the source.
Tests used:
[1] = tested on: endogenous MTAP-null patient derived xenograft models; test: MTAP-null patient derived xenograft (PDX) models, tumor growth inhibition; type: in vivo, mice
Source text: Female NOD/SCID mice were implanted with PA5415 (pancreatic tumors) or ES11082 (esophageal tumors). […] Data represent group means±SEM, n=10. for each group.
For each model, 6 Female NOD/SCID mice were implanted with PDX. Mean tumor volumes for each grouping were between 100-200 mm^3.
6 Female NOD/SCID mice were implanted with patient-derived tumor xenograft (PDX) models of pancreatic ovarian, esophageal, melanoma, lung, brain, mixed mullerian or gallbladder cancer. Mean tumor volumes for each grouping were between 100-200 mm^3.

PSN1 cells = test: Combination with irinotecan, CellTiter-Glo viability, Fa and CalcuSyn CI; type: cell-based; details: 6 days
Experimental: (§1) Cell viability was measured by the CellTiter-Glo Luminescence assay. Raw luminescent values were converted to fraction affected (Fa) with the following equation:
(§2) Synergy analysis was performed using the CalcuSyn software to determine CI scores based on the drug concentrations used and corresponding Fa values.

HCT116 MTAP-WT cells = test: Global SDMA levels (in-cell imaging) in MTAP-WT cells; type: cell-based; details: Homo sapiens, HCT-116, 96 h, 4 days
Experimental: FIG. 1. […] Viability was measured by CellTiter-Glo and cooperativity was determined as follows: Cooperativity=WT IC50/MTAP-null IC50.
HCT116 WT and MTAP-null global SDMA levels were assessed by an in-cell imaging assay after 4 days treatment.

A549 cells [2] = test: Combination with paclitaxel, CellTiter-Glo viability, Fa and CalcuSyn CI; type: cell-based; details: 6 days;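 note: luminescent viability signal converted to fraction affected (Fa), and Fa with drug concentrations gives the CalcuSyn CI, where 0.9–1.1 is nearly additive and lower CI means stronger synergism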
Experimental: as §1, §2

H292 cells [3] = test: Combination with pemetrexed, CellTiter-Glo viability, Fa and CalcuSyn CI; details: 6 days;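 note: fa derived from CellTiter-Glo luminescence signal, CI calculated in CalcuSyn from doses and Fa, with 0.9–1.1 nearly additive and smaller values indicating synergism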
Experimental: as §1, §2

MIAPACA2T2 cells [4] = test: Combination with carboplatin, CellTiter-Glo viability, Fa and CalcuSyn CI; type: cell-based; details: 6 days
Experimental: as §1, §2

MIAPACA2T2 cells [5] = test: Combination with gemcitabine, CellTiter-Glo viability, Fa and CalcuSyn CI; type: cell-based; details: 6 days
Experimental: as §1, §2

H292 NSCLC xenografts = test: H292 NSCLC xenografts, combination with chemotherapy; type: in vivo, mice
MIAPACA2T2 cells [6] = test: Combination with irinotecan, CellTiter-Glo viability, Fa and CalcuSyn CI; type: cell-based; details: 6 days
Experimental: as §1, §2

H292 cells [7] = test: Combination with paclitaxel, CellTiter-Glo viability, Fa and CalcuSyn CI; type: cell-based; details: 6 days;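 note: fa derived from raw luminescence, CI computed in CalcuSyn from drug concentrations and Fa, with CI under 0.9 indicating synergism and 0.9 to 1.1 nearly additive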
Experimental: as §1, §2

A549 cells [8] = test: Combination with pemetrexed, CellTiter-Glo viability, Fa and CalcuSyn CI; details: 6 days;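 note: fa derived from raw CellTiter-Glo luminescence, CI computed by CalcuSyn from drug concentrations and Fa, with values below 0.9 meaning synergism and 0.9–1.1 nearly additive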
Experimental: as §1, §2

[9] = Compound B 0.1535 μM fixed + Paclitaxel 0.0005 μM
[10] = Compound B 0.1535 μM fixed + Paclitaxel 0.0007 μM
[11] = Compound B 0.1535 μM fixed + Paclitaxel 0.0009 μM
[12] = Compound B 0.1535 μM fixed + Paclitaxel 0.0011 μM
[13] = Compound B 0.1535 μM fixed + Paclitaxel 0.0015 μM
[14] = Compound B 0.1535 μM fixed + Paclitaxel 0.0019 μM
[15] = Compound B 0.1535 μM fixed + Paclitaxel 0.0025 μM
[16] = Compound B 0.1535 μM fixed + Pemetrexed 0.131687 μM
[17] = Compound B 0.1535 μM fixed + Pemetrexed 0.197531 μM
[18] = Compound B 0.1535 μM fixed + Pemetrexed 0.296296 μM
[19] = Compound B 0.1535 μM fixed + Pemetrexed 0.444444 μM
[20] = Compound B 0.1535 μM fixed + Pemetrexed 0.666667 μM
[21] = Compound B 0.1535 μM fixed + Pemetrexed 1 μM
[22] = Compound B 0.1535 μM fixed + Pemetrexed 1.5 μM
[23] = Compound B 0.2916 μM fixed + Gemcitabine 0.002045 μM
[24] = Compound B 0.2916 μM fixed + Paclitaxel 0.0005 μM
[25] = Compound B 0.2916 μM fixed + Paclitaxel 0.0007 μM
[26] = Compound B 0.2916 μM fixed + Paclitaxel 0.0009 μM
[27] = Compound B 0.2916 μM fixed + Paclitaxel 0.0011 μM
[28] = Compound B 0.2916 μM fixed + Paclitaxel 0.0015 μM
[29] = Compound B 0.2916 μM fixed + Paclitaxel 0.0019 μM
[30] = Compound B 0.2916 μM fixed + Paclitaxel 0.0025 μM

Structure (SMILES): Cc1cc2cc(C(=O)N(Cc3ccc(C(F)(F)F)cn3)[C@@H](C)c3ncccn3)ccc2nc1N [Compound B]
- tumor growth inhibition (TGI) ([1]; 100 mg/kg orally once daily, majority of PDX models harboring deletion of the MTAP gene, panel of over twenty PDX models): greater than 50%
- anti-tumor growth inhibition ([1]; PA5415 pancreatic and ES11082 esophageal PDX, p.o. once a day): significant anti-tumor growth inhibition
- Computed CI value (PSN1 cells; Compound B 0.0202 μM fixed + Irinotecan 0.088889 μM): 0.806
- Computed CI value (PSN1 cells; Compound B 0.0202 μM fixed + Irinotecan 0.133333 μM): 0.8
- Computed CI value (PSN1 cells; Compound B 0.0202 μM fixed + Irinotecan 0.2 μM): 0.8
- IC50 (HCT116 MTAP-WT cells): 50 nM
- Combination Fa (A549 cells [2]; [9]): 0.7030
- Computed CI value (A549 cells [2]; [9]): 0.545
- Combination Fa (A549 cells [2]; [10]): 0.7177
- Computed CI value (A549 cells [2]; [10]): 0.64
- Combination Fa (A549 cells [2]; [11]): 0.7578
- Computed CI value (A549 cells [2]; [11]): 0.716
- Combination Fa (A549 cells [2]; [12]): 0.8365
- Computed CI value (A549 cells [2]; [12]): 0.745
- Combination Fa (A549 cells [2]; [13]): 0.9023
- Computed CI value (A549 cells [2]; [13]): 0.786
- Combination Fa (A549 cells [2]; [14]): 0.9387
- Computed CI value (A549 cells [2]; [14]): 0.867
- Combination Fa (A549 cells [2]; [15]): 0.9692
- Computed CI value (A549 cells [2]; [15]): 0.898
- Combination Fa (H292 cells [3]; [16]): 0.6769
- Computed CI value (H292 cells [3]; [16]): 0.73
- Combination Fa (H292 cells [3]; [17]): 0.7032
- Computed CI value (H292 cells [3]; [17]): 0.587
- Combination Fa (H292 cells [3]; [18]): 0.7484
- Computed CI value (H292 cells [3]; [18]): 0.401
- Combination Fa (H292 cells [3]; [19]): 0.7887
- Computed CI value (H292 cells [3]; [19]): 0.309
- Combination Fa (H292 cells [3]; [20]): 0.8438
- Computed CI value (H292 cells [3]; [20]): 0.215
- Combination Fa (H292 cells [3]; [21]): 0.8703
- Computed CI value (H292 cells [3]; [21]): 0.216
- Combination Fa (H292 cells [3]; [22]): 0.8508
- Computed CI value (H292 cells [3]; [22]): 0.385
- Combination Fa (MIAPACA2T2 cells [4]; Compound B 0.4374 μM fixed + Carboplatin 2.47793 μM): 0.653
- Computed CI value (MIAPACA2T2 cells [4]; Compound B 0.4374 μM fixed + Carboplatin 11.1111 μM): 0.269
- Combination Fa (MIAPACA2T2 cells [5]; Compound B 0.2916 μM fixed + Gemcitabine 0.001461 μM): 0.567
- Combination Fa (MIAPACA2T2 cells [5]; [23]): 0.514
- Computed CI value (MIAPACA2T2 cells [5]; [23]): 1.006
- Computed CI value (MIAPACA2T2 cells [5]; Compound B 0.2916 μM fixed + Gemcitabine 0.002863 μM): 0.823
- Computed CI value (MIAPACA2T2 cells [5]; Compound B 0.2916 μM fixed + Gemcitabine 0.004009 μM): 0.866
- Computed CI value (MIAPACA2T2 cells [5]; Compound B 0.2916 μM fixed + Gemcitabine 0.005612 μM): 0.843
- Computed CI value (MIAPACA2T2 cells [5]; Compound B 0.2916 μM fixed + Gemcitabine 0.007857 μM): 0.895
- Computed CI value (MIAPACA2T2 cells [5]; Compound B 0.2916 μM fixed + Gemcitabine 0.011 μM): 1.007
- anti-tumor activity of combination with paclitaxel (H292 NSCLC xenografts; 100 mg/kg orally once daily + paclitaxel 20 mg/kg IP): significant anti-tumor activity versus either single agent alone; also recorded: significant anti-tumor activity versus paclitaxel or carboplatin alone
- anti-tumor activity of combination with carboplatin (H292 NSCLC xenografts; orally once daily + carboplatin 60 mg/kg IP 1×/week): significant anti-tumor activity versus paclitaxel or carboplatin alone
- Computed CI value (MIAPACA2T2 cells [6]; Compound B 0.4374 μM fixed + Irinotecan 0.256 μM): 0.602
- Computed CI value (MIAPACA2T2 cells [6]; Compound B 0.4374 μM fixed + Irinotecan […]): 0.647
- Combination Fa (H292 cells [7]; [24]): 0.7127
- Computed CI value (H292 cells [7]; [24]): 0.84
- Combination Fa (H292 cells [7]; [25]): 0.7796
- Computed CI value (H292 cells [7]; [25]): 0.758
- Combination Fa (H292 cells [7]; [26]): 0.8302
- Computed CI value (H292 cells [7]; [26]): 0.757
- Combination Fa (H292 cells [7]; [27]): 0.8932
- Computed CI value (H292 cells [7]; [27]): 0.724
- Combination Fa (H292 cells [7]; [28]): 0.9425
- Computed CI value (H292 cells [7]; [28]): 0.697
- Combination Fa (H292 cells [7]; [29]): 0.9568
- Computed CI value (H292 cells [7]; [29]): 0.8
- Combination Fa (H292 cells [7]; [30]): 0.9674
- Computed CI value (H292 cells [7]; [30]): 0.928
- Combination Fa (A549 cells [8]; Compound B 0.1535 μM fixed + Pemetrexed 0.087792 μM): 0.6401
- Combination Fa (A549 cells [8]; [16]): 0.6629
- Computed CI value (A549 cells [8]; [16]): 0.936
- Combination Fa (A549 cells [8]; [17]): 0.6484
- Computed CI value (A549 cells [8]; [17]): 1.172
- Combination Fa (A549 cells [8]; [18]): 0.6761
- Computed CI value (A549 cells [8]; [18]): 1.033
- Combination Fa (A549 cells [8]; [19]): 0.7384
- Computed CI value (A549 cells [8]; [19]): 0.639
- Combination Fa (A549 cells [8]; [20]): 0.8303
- Computed CI value (A549 cells [8]; [20]): 0.235
- Combination Fa (A549 cells [8]; [21]): 0.8717
- Computed CI value (A549 cells [8]; [21]): 0.139
